How the values were obtained:
Conditions in all cases: 0.2500 kg/ha
[1] = system: Lambsquarters, Common, Chenopodium album; assay: Preemergence herbicidal evaluation, CHEAL; format: in vivo, L.
Source text: (§1) Results of herbicide evaluation are expressed on a rating scale (0-9). The scale is based upon a visual observation of plant stand, vigor, malformation, size, chlorosis and overall plant appearance as compared with a control.
(§2) The preemergence herbicidal activity of the test compounds of the present invention is exemplified by the following tests in which the seeds of a variety of monocotyledonous and dicotyledonous plants are separately mixed with potting soil and planted on top of approximately one inch of soil in separate pint cups. After planting, the cups are sprayed with the selected aqueous acetone solution containing test compound in sufficient quantity to provide the equivalent of about 0.0156 to 0.500 kg per hectare of test compound per cup. The treated cups are then placed on greenhouse benches, watered and cared for in accordance with conventional greenhouse procedures. From four to five weeks after treatment, the tests are terminated and each cup is examined and rated according to the rating system provided in Example 185.
(§3) The compounds evaluated are reported by compound number given in Example 185.

[2] = system: Rice, Tebonnet, Oryza sativa; assay: Preemergence herbicidal evaluation, ORYSAT; format: in vivo, (L.) Tebonnet
Source text: as §1, §2, §3

[3] = system: Foxtail, Green, Setaria viridis; assay: Preemergence herbicidal evaluation, SETVI; format: in vivo, (L.) Beau
Source text: as §1, §2, §3

Galium, Galium aparine = assay: Preemergence herbicidal evaluation, GALAP; format: in vivo
Source text: as §1, §2, §3

[4] = system: Ragweed, Common, Ambrosia artemisifolia; assay: Preemergence herbicidal evaluation, AMBEL; format: in vivo, L.
Source text: as §1, §2, §3

[5] = system: Velvetleaf, Abutilon theophrasti; assay: Preemergence herbicidal evaluation, ABUTH; format: in vivo, Medic.
Source text: as §1, §2, §3

[6] = system: Sicklepod, Cassia obtusifolia; assay: Preemergence herbicidal evaluation, CASOB; format: in vivo, L.
Source text: as §1, §2, §3

[7] = system: Barnyardgrass, Echinochloa crus-galli; assay: Preemergence herbicidal evaluation, ECHCG; format: in vivo, (L.) Beau
Source text: as §1, §2, §3

[8] = system: Wheat, Winter, cv Riband, Triticum aestivum; assay: Preemergence herbicidal evaluation, TRZAWR; format: in vivo
Source text: as §1, §2, §3

[9] = system: Soybean, Williams, Glycine max; assay: Preemergence herbicidal evaluation, GLXMAW; format: in vivo, (L.) Merr. cv Williams
Source text: as §1, §2, §3

Corn, Field, Zea mays = assay: Preemergence herbicidal evaluation, ZEAMX; format: in vivo, L.
Source text: as §1, §2, §3

[10] = system: Morningglory, Ivyleaf, Ipomoea hederacea; assay: Preemergence herbicidal evaluation, IPOHE; format: in vivo, (L.) Jacq.
Source text: as §1, §2, §3

Which results are given for `COC(=O)COc1noc2ccc(-n3c(=O)cc(C(F)(F)F)n(C)c3=O)cc12` [Compound 22, Methyl {{5-[3,6-dihydro-3-methyl-2,6-dioxo-4-(trifluoromethyl)-1(2H)-pyrimidinyl]-1,2-benzisoxazol-3-yl}oxy}acetate]?
herbicide rating (0-9) [1]: 0.0; herbicide rating (0-9) [2]: 0.0; herbicide rating (0-9) [3]: 0.0; herbicide rating (0-9) (Galium, Galium aparine): 4.0; herbicide rating (0-9) [4]: 0.0; herbicide rating (0-9) [5]: 0.0; herbicide rating (0-9) [6]: 9.0; herbicide rating (0-9) [7]: 0.0; herbicide rating (0-9) [8]: 0.0; herbicide rating (0-9) [9]: 2.0; herbicide rating (0-9) (Corn, Field, Zea mays): 1.0; herbicide rating (0-9) [10]: 0.0

Source: US6156700A, “3-(1,2-Benzisothiazol- and isoxazol-5-yl)-2,4(1H,3H)-pyrimidinedione or thione and 3-(1,2-benzisothiazol- and isoxazol-5-yl)-4(3H)-pyrimidinone or thione herbicidal agents” (American Cyanmid Company, priority 1998, dated 2000)
